Experimental data as given in patent publication US11155544B2, “Heterocycle comprising tyrosine kinase inhibitors” (Principia Biopharma Inc., priority 2015, dated 2021).
pIC50: −log10 of the molar value.

Tests used:
human recombinant BTK = human recombinant BTK (Homo sapiens (Human), UniProt Q06187); assay: BTK Enzymatic Activity Assay (Caliper-based kinase assay); type: biochemical; conditions: human recombinant BTK (0.5 nM), ATP (16 μM), peptide substrate (1 μM), room temperature for 3 h
Description: A Caliper-based kinase assay (Caliper Life Sciences, Hopkinton, Mass.) was used to measure inhibition of BTK kinase activity of a compound of the present disclosure. Serial dilutions of test compounds were incubated with human recombinant BTK (0.5 nM), ATP (16 μM) and a phosphoacceptor peptide substrate FAM-GEEPLYWSFPAKKK-NH2 (1 μM) at room temperature for 3 h. The reaction was then terminated with EDTA, final concentration 20 mM and the phosphorylated reaction product was quantified on a Caliper Desktop Profiler (Caliper LabChip 3000). Percent inhibition was calculated for each compound dilution and the concentration that produced 50% inhibition was calculated. This value is presented as the IC50.

CD69 expression = assay: Blockade of CD69 Expression in Human Whole Blood Samples; type: cell-based; conditions: 30 minutes pre-incubation, activation with anti-IgM, cells gated on CD20, CD69 by FACS
Description: Activation of the B cell receptor leads to increased BTK activity, calcium mobilization and B cell activation (see Honigberg L. A., et. al., Proc Natl Acad Sci USA. 107:13075-80. 2010). […] CD69 was expressed following B cell activation as a measure of BTK activity in whole blood. Aliquots of whole blood were pre-incubated with serial dilutions of test compound for 30 minutes followed by activation with anti-IgM (goat Fab′ 2, 50 μg/ml). Samples were incubated overnight at 37° C. and then stained with PE labeled anti-CD20 and APC labeled anti-CD69 (BD Pharmingen) for 30 minutes according to the manufacturer's directions. Whole blood was then lysed and cells gated on CD20 expression were quantified for CD 69 expression by FACS. The percent inhibition was calculated based on a DMSO control for no inhibition and plotted as a function of test compound concentration from which an IC50 value was calculated.

Chain of human recombinant BTK (Q06187 whole entry): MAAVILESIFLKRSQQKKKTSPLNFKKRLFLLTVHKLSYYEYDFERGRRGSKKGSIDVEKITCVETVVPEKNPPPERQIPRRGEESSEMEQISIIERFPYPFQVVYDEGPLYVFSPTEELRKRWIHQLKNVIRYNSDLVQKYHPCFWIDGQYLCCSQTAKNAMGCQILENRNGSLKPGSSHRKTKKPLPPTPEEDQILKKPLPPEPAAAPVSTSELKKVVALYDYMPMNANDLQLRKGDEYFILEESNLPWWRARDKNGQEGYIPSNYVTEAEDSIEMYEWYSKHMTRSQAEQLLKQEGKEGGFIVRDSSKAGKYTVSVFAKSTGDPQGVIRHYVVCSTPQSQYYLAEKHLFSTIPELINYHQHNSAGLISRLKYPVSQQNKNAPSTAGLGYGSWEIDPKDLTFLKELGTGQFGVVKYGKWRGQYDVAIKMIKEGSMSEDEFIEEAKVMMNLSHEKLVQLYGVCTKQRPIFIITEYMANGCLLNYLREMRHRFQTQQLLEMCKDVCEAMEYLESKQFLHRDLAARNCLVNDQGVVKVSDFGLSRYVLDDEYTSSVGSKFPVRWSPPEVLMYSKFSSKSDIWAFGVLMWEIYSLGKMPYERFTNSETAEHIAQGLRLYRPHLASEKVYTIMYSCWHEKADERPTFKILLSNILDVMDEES

Compound	pIC50 (human recombinant BTK)	pIC50 (CD69 expression)
(R)-2-(3-(4-amino-3-(2-methyl-4-phenoxyphenyl)-1H-pyrazolo[4,3-c]pyridin-1-yl)piperidine-1-carbonyl)-4-methyl-4-(4-(oxetan-3-yl)piperazin-1-yl)pent-2-enenitrile [Compound 25]	8.36	6.37
CC(C)(C=C(C#N)C(=O)N1CCC[C@H]1Cn1nc(-c2ccc(Oc3ccccc3)cc2F)c2c(N)nccc21)N1CCN(C2COC2)CC1 [Compound 13, (S)-2-(2-((4-amino-3-(2-fluoro-4-phenoxyphenyl)-1H-pyrazolo[4,3-c]pyridin-1-yl)methyl)pyrrolidine-1-carbonyl)-4-methyl-4-(4-(oxetan-3-yl)piperazin-1-yl)pent-2-enenitrile]	8.13	5.89
CC(C)(C=C(C#N)C(=O)N1CCC[C@@H](n2nc(-c3ccc(Oc4ccccc4)cc3F)c3c(N)nccc32)C1)N1CCNC(=O)C1 [Compound 24, (R)-2-(3-(4-amino-3-(2-fluoro-4-phenoxyphenyl)-1H-pyrazolo[4,3-c]pyridin-1-yl)piperidine-1-carbonyl)-4-methyl-4-(3-oxopiperazin-1-yl)pent-2-enenitrile]	8.77	6.24
CC(C)(C=C(C#N)C(=O)N1CCC[C@H]1Cc1nc(-c2ccc(Oc3ccccc3)cc2F)c2c(N)nccn12)N1CCN(C2COC2)CC1 [Compound 19, (S)-2-(2-((8-amino-1-(2-fluoro-4-phenoxyphenyl)imidazo[1,5-a]pyrazin-3-yl)methyl)pyrrolidine-1-carbonyl)-4-methyl-4-(4-(oxetan-3-yl)piperazin-1-yl)pent-2-enenitrile]	7.63	6.75
CC(C)(C)C=C(C#N)C(=O)N1CCC[C@H]1Cc1nc(-c2ccc(Oc3ccccc3)cc2F)c2c(N)nccn12 [Compound 16, (S)-2-(2-((8-amino-1-(2-fluoro-4-phenoxyphenyl)imidazo[1,5-a]pyrazin-3-yl)methyl)pyrrolidine-1-carbonyl)-4,4-dimethylpent-2-enenitrile]	8.77	6.03
CN1CCN(C(C)(C)/C=C(\C#N)C(=O)N2CCC[C@@H](n3nc(-c4ccc(Oc5ccccc5)cc4F)c4c(N)nccc43)C2)CC1 [Compound 10, (R)-2-(3-(4-amino-3-(2-fluoro-4-phenoxyphenyl)-1H-pyrazolo[4,3-c]pyridin-1-yl)piperidine-1-carbonyl)-4-methyl-4-(4-methylpiperazin-1-yl)pent-2-enenitrile]	8.72	6.54
CC(C)(C=C(C#N)C(=O)N1CCC[C@@H](n2nc(-c3ccc(Oc4ccccc4)cc3F)c3c(N)nccc32)C1)N1CCN(C2COC2)CC1 [Compound 1, (R)-2-(3-(4-amino-3-(2-fluoro-4-phenoxyphenyl)-1H-pyrazolo[4,3-c]pyridin-1-yl)piperidine-1-carbonyl)-4-methyl-4-(4-(oxetan-3-yl)piperazin-1-yl)pent-2-enenitrile]		6.96
CC(C)(C=C(C#N)C(=O)N1CCC[C@@H](n2nc(-c3ccc(Oc4ccccc4)cc3F)c3c(N)nccc32)C1)N1CCN(C2(C)COC2)CC1 [Compound 7, (R)-2-(3-(4-amino-3-(2-fluoro-4-phenoxyphenyl)-1H-pyrazolo[4,3-c]pyridin-1-yl)piperidine-1-carbonyl)-4-methyl-4-(4-(3-methyloxetan-3-yl)piperazin-1-yl)pent-2-enenitrile]		6.94
CC(C)(C=C(C#N)C(=O)N1CCC[C@H]1Cn1nc(-c2ccc(C(=O)Nc3ccccn3)cc2)c2c(N)nccc21)N1CCN(C2COC2)CC1 [Compound 15, (S)-4-(4-amino-1-((1-(2-cyano-4-methyl-4-(4-(oxetan-3-yl)piperazin-1-yl)pent-2-enoyl)pyrrolidin-2-yl)methyl)-1H-pyrazolo[4,3-c]pyridin-3-yl)-N-(pyridin-2-yl)benzamide]	7.65	
COC(=O)N1CCN(C(C)(C)C=C(C#N)C(=O)N2CCC[C@@H](c3nc(-c4ccc(Oc5ccccc5)cc4F)c4c(N)nccn34)C2)CC1 [Compound 58, (R)-methyl 4-(5-(3-(8-amino-1-(2-fluoro-4-phenoxyphenyl)imidazo[1,5-a]pyrazin-3-yl)piperidin-1-yl)-4-cyano-2-methyl-5-oxopent-3-en-2-yl)piperazine-1-carboxylate]	8.55	
CN(C1COC1)C(C)(C)C=C(C#N)C(=O)N1CCC[C@@H](n2nc(-c3ccc(Oc4ccccc4)cc3F)c3c(N)nccc32)C1 [Compound 14, (R)-2-(3-(4-amino-3-(2-fluoro-4-phenoxyphenyl)-1H-pyrazolo[4,3-c]pyridin-1-yl)piperidine-1-carbonyl)-4-methyl-4-(methyl(oxetan-3-yl)amino)pent-2-enenitrile]		6.74
CN1CCN(C(=O)C(C#N)=CC(C)(C)C)C[C@@H]1c1nc(-c2ccc(Oc3ccccc3)cc2)c2c(N)nccn12 [Compound 66, (R)-2-(3-(8-amino-1-(4-phenoxyphenyl)imidazo[1,5-a]pyrazin-3-yl)-4-methylpiperazine-1-carbonyl)-4,4-dimethylpent-2-enenitrile]	9.52	
CC(C)(C=C(C#N)C(=O)N1CCC[C@@H](n2nc(-c3ccc(Oc4ccccc4)cc3)c3c(N)nccc32)C1)N1CCN(C2COC2)CC1 [Compound 34, (R)-2-(3-(4-amino-3-(4-phenoxyphenyl)-1H-pyrazolo[4,3-c]pyridin-1-yl)piperidine-1-carbonyl)-4-methyl-4-(4-(oxetan-3-yl)piperazin-1-yl)pent-2-enenitrile]	8.72	
CC(=O)N1CCN(C(C)(C)C=C(C#N)C(=O)N2CCC[C@@H](c3nc(-c4ccc(Oc5ccccc5)cc4)c4c(N)nccn34)C2)CC1 [Compound 57, (R)-4-(4-acetylpiperazin-1-yl)-2-(3-(8-amino-1-(4-phenoxyphenyl)imidazo[1,5-a]pyrazin-3-yl)piperidine-1-carbonyl)-4-methylpent-2-enenitrile]	8.96	
CCN1CCN(C(C)(C)C=C(C#N)C(=O)N2CCC[C@H]2Cn2nc(-c3ccc(Oc4ccccc4)cc3F)c3c(N)nccc32)CC1=O [Compound 31, (S)-2-(2-((4-amino-3-(2-fluoro-4-phenoxyphenyl)-1H-pyrazolo[4,3-c]pyridin-1-yl)methyl)pyrrolidine-1-carbonyl)-4-(4-ethyl-3-oxopiperazin-1-yl)-4-methylpent-2-enenitrile]	7.94	
CC(C)(C=C(C#N)C(=O)N1CCC[C@@H](c2nc(-c3ccc(Oc4ccccc4)cc3F)c3c(N)nccn23)C1)N1CCN2C(=O)CC[C@H]2C1 [Compound 62, 2-((R)-3-(8-amino-1-(2-fluoro-4-phenoxyphenyl)imidazo[1,5-a]pyrazin-3-yl)piperidine-1-carbonyl)-4-methyl-4-((S)-6-oxohexahydropyrrolo[1,2-a]pyrazin-2(1H)-yl)pent-2-enenitrile]	8.66	
CN1CCN(C(C)(C)C=C(C#N)C(=O)N2CCC[C@@H](n3nc(-c4ccc(C(=O)Nc5ccccn5)cc4)c4c(N)nccc43)C2)CC1 [Compound 45, (R)-4-(4-amino-1-(1-(2-cyano-4-methyl-4-(4-methylpiperazin-1-yl)pent-2-enoyl)piperidin-3-yl)-1H-pyrazolo[4,3-c]pyridin-3-yl)-N-(pyridin-2-yl)benzamide]	8.34	
CN1CCN(C(C)(C)C=C(C#N)C(=O)N2CCC[C@H]2Cn2nc(-c3ccc(C(=O)Nc4ccccn4)cc3)c3c(N)nccc32)CC1 [Compound 20, (S)-4-(4-amino-1-((1-(2-cyano-4-methyl-4-(4-methylpiperazin-1-yl)pent-2-enoyl)pyrrolidin-2-yl)methyl)-1H-pyrazolo[4,3-c]pyridin-3-yl)-N-(pyridin-2-yl)benzamide]	7.72	
CC1(C=C(C#N)C(=O)N2CCC[C@@H](c3nc(-c4ccc(Oc5ccccc5)cc4F)c4c(N)nccn34)C2)CCOCC1 [Compound 53, (R)-2-(3-(8-amino-1-(2-fluoro-4-phenoxyphenyl)imidazo[1,5-a]pyrazin-3-yl)piperidine-1-carbonyl)-3-(4-methyltetrahydro-2H-pyran-4-yl)acrylonitrile]	8.70	
CC(C)(C=C(C#N)C(=O)N1CCC[C@@H](n2nc(-c3ccc(Oc4ccccc4)cc3)c3c(N)nccc32)C1)N1CCN(C2(C)COC2)CC1 [Compound 39, (R)-2-(3-(4-amino-3-(4-phenoxyphenyl)-1H-pyrazolo[4,3-c]pyridin-1-yl)piperidine-1-carbonyl)-4-methyl-4-(4-(3-methyloxetan-3-yl)piperazin-1-yl)pent-2-enenitrile]	8.89	
CCN1CCN(C(C)(C)C=C(C#N)C(=O)N2CCC[C@@H](n3nc(-c4ccc(Oc5ccccc5)cc4F)c4c(N)nccc43)C2)CC1=O [Compound 40, (R)-2-(3-(4-amino-3-(2-fluoro-4-phenoxyphenyl)-1H-pyrazolo[4,3-c]pyridin-1-yl)piperidine-1-carbonyl)-4-methyl-4-(4-ethyl-3-oxopiperazin-1-yl)pent-2-enenitrile]	8.62	
